Target: recombinant human ATX (Homo sapiens, UniProt Q13822)
Test: Choline detection assay for ATX
Format: biochemical
Conditions: for ATX activity (%) 1 μM: 1 μM test compound; for ATX activity (%) 1 μM / ATX activity (%) 10 Mm / ATX activity (%) 100 μM / ATX activity (%) 10 μM: activity without test compound = 100%; for ATX activity (%) 10 Mm: 10 μM test compound as printed; for ATX activity (%) 100 μM: 100 μM test compound; for ATX inhibition (in words): compounds synthesized from D-tyrosine; for ATX activity (%) 10 μM: 10 μM test compound
Description: The phosphonate derivatives were tested in choline detection assay for ATX inhibition. The ATX activity assay was conducted in 0.1 ml, buffer: (in mM: Tris-HCl 100, pH9, NaCl 150, MgCl2 5, CoSO4 0.03, 0.05% Triton X-100), 1 mM 18:1 LPC, using recombinant human ATX with or without test compounds; incubation was for 16 hours at 37° C. The released choline was detected as follows: Samples were mixed with 0.15 ml of 50 mM TrisHCl containing 2.7 mM TOOS(N-ethyl-N-2-hydroxy-3-sulfopropyl)-m-toluidine, 2.7 mM 4-AAP (4-aminoantipyrine), 47.7 U/ml horseradish peroxidase, 18 U/ml choline oxidase, and 5 mM MgCl2. After 30 min incubation at 37° C., light absorbance (550 nm) was determined, and the amount of choline release was calculated from a standard curve.
The ATX activity was measured in the presence of the test compounds under different concentrations (100 μM, 10 μM and 1 μM). The ATX activity without TEST compounds was used as the standard (100% activity). Some β-hydroxy phosphonate derivatives inhibited ATX activity at only the highest concentration tested. […] These two compounds were synthesized from protected L-tyrosine and they are diastereomers. The less polar isomer, f17, (also known as VPC8a202) was able to inhibit 73% of ATX activity at 1 μM.

Row | SMILES | ATX activity (%) 1 μM (Table 1 (f1-f34), 1 µM) [%] | ATX activity (%) 10 Mm (Table 1 (f1-f34)) [%] | ATX activity (%) 100 μM (Table 1 (f1-f34), 100 µM) [%] | other results
1 | CCCCCCCCCCCCCCCC(=O)N[C@H](Cc1ccc(OCc2ccccc2)cc1)C(O)CP(=O)(O)O (single isomer, unassigned) [f5] | 83 | 82 | 83 | –
2 | CCCCCCCCCCCCCCCC(=O)N[C@H](Cc1ccc(OCc2ccccc2)cc1)C(O)CP(=O)(O)O (single isomer, unassigned) [f6] | 80 | 81 | 83 | –
3 | CCCCCCCCCCCCCCCC(=O)N[C@@H](Cc1ccc(OCc2ccccc2)cc1)C(O)CP(=O)(O)O (single isomer, unassigned) [f7] | 97 | 77 | 68 | –
4 | CCCCCCCCCCCCCCCC(=O)N[C@@H](Cc1ccc(OCc2ccccc2)cc1)C(O)CP(=O)(O)O (single isomer, unassigned) [f8] | 76 | 83 | 78 | –
5 | CCCCCCCCCCCCCCCC(=O)N[C@H](Cc1ccc(OCc2ccccc2)cc1)C(O)CP(=O)(O)O (single isomer, unassigned) [f9] | 103 | 76 | 60 | –
6 | CCCCCCCCCCCCCCCC(=O)N[C@H](Cc1ccc(OCC2CCCCC2)cc1)C(O)CP(=O)(O)O (single isomer, unassigned) [f13] | – | 80 | – | ATX activity (%) 1 μM (Table 1 (f1-f34)): 84%; ATX activity (%) 100 μM (Table 1 (f1-f34)): 67%
7 | CCCCCCCCCCCCCCCC(=O)N[C@@H](Cc1ccc(OCC2CCCCC2)cc1)C(O)CP(=O)(O)O (single isomer, unassigned) [f14] | – | 80 | – | ATX activity (%) 1 μM (Table 1 (f1-f34)): 80%; ATX activity (%) 100 μM (Table 1 (f1-f34)): 80%
8 | CCCCCCCCCCCCCCCC(=O)N[C@H](Cc1ccc(OCc2ncc(C)c(OC)c2C)cc1)C(O)CP(=O)(O)O (single isomer, unassigned) [f15] | 108 | 95 | 63 | ATX inhibition (in words): did potently inhibit ATX
9 | CCCCCCCCCCCCCCCC(=O)N[C@H](Cc1ccc(OCc2ncc(C)c(OC)c2C)cc1)C(O)CP(=O)(O)O (single isomer, unassigned) [f16] | 69 | 64 | 47 | ATX inhibition (in words): did potently inhibit ATX
10 | CCCCCCCCCCCCCCCC(=O)N[C@@H](Cc1ccc(OCc2ncc(C)c(OC)c2C)cc1)C(O)CP(=O)(O)O (single isomer, unassigned) [f18] | – | 21 | – | ATX activity (%) 1 μM (Table 1 (f1-f34)): 63%; ATX activity (%) 100 μM (Table 1 (f1-f34)): 8%; inhibition of ATX (in words) (at 1 μM): significant inhibition
11 | CCCCCCCCCCCCCCCC(=O)N[C@H](Cc1ccc(OC)cc1)C(O)CP(=O)(O)O (single isomer, unassigned) [f19] | 100 | 78 | 57 | –
12 | CCCCCCCCCCCCCCCC(=O)N[C@H](Cc1ccc(OC)cc1)C(O)CP(=O)(O)O (single isomer, unassigned) [f20] | 95 | 84 | 82 | –
13 | CCCCCCCCCCCCCCCC(=O)N[C@@H](Cc1ccc(OC)cc1)C(O)CP(=O)(O)O (single isomer, unassigned) [f21] | 77 | 56 | 36 | –
14 | CCCCCCCCCCCCCCCC(=O)N[C@@H](Cc1ccc(OC)cc1)C(O)CP(=O)(O)O (single isomer, unassigned) [f22] | 84 | 80 | 69 | –
15 | CCCCCCCCCCCCCCCC(=O)N[C@H](Cc1ccc(OCCC)cc1)C(O)CP(=O)(O)O (single isomer, unassigned) [f23] | 80 | 79 | 72 | –
16 | CCCCCCCCCCCCCCCC(=O)N[C@H](Cc1ccc(OCCC)cc1)C(O)CP(=O)(O)O (single isomer, unassigned) [f24] | 108 | 108 | 90 | –
17 | CCCCCCCCCCCCCCCC(=O)N[C@@H](Cc1ccc(OCCC)cc1)C(O)CP(=O)(O)O (single isomer, unassigned) [f25] | 110 | 97 | 77 | –
18 | CCCCCCCCCCCCCCCC(=O)N[C@@H](Cc1ccc(OCCC)cc1)C(O)CP(=O)(O)O (single isomer, unassigned) [f26] | 100 | 100 | 83 | –
19 | CCCCCCCCCCCCCCCC(=O)N[C@H](Cc1ccc(OCCCCC)cc1)C(O)CP(=O)(O)O (single isomer, unassigned) [f27] | 81 | 85 | 80 | –
20 | CCCCCCCCCCCCCCCC(=O)N[C@H](Cc1ccc(OCCCCC)cc1)C(O)CP(=O)(O)O (single isomer, unassigned) [f28] | 86 | 82 | 70 | –
21 | CCCCCCCCCCCCCCCC(=O)N[C@@H](Cc1ccc(OCCCCC)cc1)C(O)CP(=O)(O)O (single isomer, unassigned) [f29] | 98 | 83 | 67 | –
22 | CCCCCCCCCCCCCCCC(=O)N[C@@H](Cc1ccc(OCCCCC)cc1)C(O)CP(=O)(O)O (single isomer, unassigned) [f30] | 94 | 90 | 70 | –
23 | CCCCCCCCCC(=O)N[C@H](Cc1ccc(OCc2ncc(C)c(OC)c2C)cc1)C(O)CP(=O)(O)O (single isomer, unassigned) [f35] | – | – | – | ATX activity (%) 10 μM (Table 2 (f35-f44)): 86%; ATX activity (%) 100 μM (Table 2 (f35-f44)): 30%
24 | CCCCCCCCCCCCCC(=O)N[C@H](Cc1ccc(OCc2ncc(C)c(OC)c2C)cc1)C(O)CP(=O)(O)O (single isomer, unassigned) [f37] | – | – | – | ATX activity (%) 10 μM (Table 2 (f35-f44)): 99%; ATX activity (%) 100 μM (Table 2 (f35-f44), 100 µM): 67%
25 | CCCCCCCCCCCCCC(=O)N[C@H](Cc1ccc(OCc2ncc(C)c(OC)c2C)cc1)C(O)CP(=O)(O)O (single isomer, unassigned) [f38] | – | – | – | ATX activity (%) 100 μM (Table 2 (f35-f44), 100 µM): 35%

Source: patent publication US8378100B2, “Phosphonate derivatives as autotaxin inhibitors” (University of Virginia Patent Foundation, priority 2008, dated 2013)
